# From patent US20230075856A1, “CYCLIC SULFAMIDE COMPOUNDS FOR TREATMENT OF HBV” (Assembly Biosciences, Inc., priority 2018, published 2023)
# Read-outs that look alike come from different tables or passages of the source.
# Tested on: HBV viral load production from HepAD38 cells
# Assay: Viral production from HepAD38 cells: viral load in supernatant by qPCR of the HBV core sequence
# Format: cell-based
# Details: 5 days incubation, qPCR of supernatant HBV DNA vs DMSO control, read-out: viral load lowering EC50 (Activity)
# Procedure, shortened: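 Viral load was measured by qPCR of the HBV core region in supernatant, quantified against DNA standards and compared with DMSO wells. Cells (50,000/well, tetracycline withdrawn, 2% FBS) received compound from 10 μM final for 5 days; EC50 from four-parameter nonlinear regression.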
# [1] = Hepatitis B virus, HePAD38, 120 h
SMILES,EC50 [nM],EC50 [1] [nM]
"Cc1csc(CNC(=O)C2CC(C(=O)Nc3ccc(F)c(Cl)c3)N(C)S(=O)(=O)N2)n1 (single isomer, unassigned) [Compound 686-ISOMER-B, N3-(3-chloro-4-fluoro-phenyl)-2-methyl-N5-[(4-methylthiazol-2-yl)methyl]-1,1-dioxo-1,2,6-thiadiazinane-3,5-dicarboxamide]",< 50,–
"Cc1cnc(CNC(=O)C2CC(C(=O)Nc3ccc(F)c(Cl)c3)N(C)S(=O)(=O)N2)s1 (single isomer, unassigned) [Compound 687-ISOMER-A, N3-(3-chloro-4-fluoro-phenyl)-2-methyl-N5-[(5-methylthiazol-2-yl)methyl]-1,1-dioxo-1,2,6-thiadiazinane-3,5-dicarboxamide]",–,100 to 10000
"Cc1cnc(CNC(=O)C2CC(C(=O)Nc3ccc(F)c(Cl)c3)N(C)S(=O)(=O)N2)s1 (single isomer, unassigned) [Compound 687-ISOMER-B, N3-(3-chloro-4-fluoro-phenyl)-2-methyl-N5-[(5-methylthiazol-2-yl)methyl]-1,1-dioxo-1,2,6-thiadiazinane-3,5-dicarboxamide]",< 50,–
"CN1C(C(=O)Nc2ccc(F)c(Cl)c2)CC(C(=O)NCc2nc3ccccc3s2)NS1(=O)=O (single isomer, unassigned) [Compound 689-ISOMER-A, N5-(1,3-benzothiazol-2-ylmethyl)-N3-(3-chloro-4-fluoro-phenyl)-2-methyl-1,1-dioxo-1,2,6-thiadiazinane-3,5-dicarboxamide]",–,100 to 10000
"CN1C(C(=O)Nc2ccc(F)c(Cl)c2)CC(C(=O)NCc2nc3ccccc3s2)NS1(=O)=O (single isomer, unassigned) [Compound 689-ISOMER-B, N5-(1,3-benzothiazol-2-ylmethyl)-N3-(3-chloro-4-fluoro-phenyl)-2-methyl-1,1-dioxo-1,2,6-thiadiazinane-3,5-dicarboxamide]",< 50,–
"CN1C(C(=O)Nc2ccc(F)c(Cl)c2)CC(C(=O)NCc2cnc(-c3ccccc3)s2)NS1(=O)=O (single isomer, unassigned) [Compound 691-ISOMER-A, N3-(3-chloro-4-fluoro-phenyl)-2-methyl-1,1-dioxo-N5-[(2-phenylthiazol-5-yl)methyl]-1,2,6-thiadiazinane-3,5-dicarboxamide]",–,100 to 10000
"CN1C(C(=O)Nc2ccc(F)c(Cl)c2)CC(C(=O)NCc2cnc(-c3ccccc3)s2)NS1(=O)=O (single isomer, unassigned) [Compound 691-ISOMER-B, N3-(3-chloro-4-fluoro-phenyl)-2-methyl-1,1-dioxo-N5-[(2-phenylthiazol-5-yl)methyl]-1,2,6-thiadiazinane-3,5-dicarboxamide]",< 50,–
"Cc1cccc(CNC(=O)C2CC(C(=O)Nc3ccc(F)c(Cl)c3)N(C)S(=O)(=O)N2)n1 (single isomer, unassigned) [Compound 716-ISOMER-A, N3-(3-chloro-4-fluoro-phenyl)-2-methyl-N5-[(6-methyl-2-pyridyl)methyl]-1,1-dioxo-1,2,6-thiadiazinane-3,5-dicarboxamide]",–,< 50
"COc1ccc(CNC(=O)C2CC(C(=O)Nc3ccc(F)c(Cl)c3)N(C)S(=O)(=O)N2)cc1 (single isomer, unassigned) [Compound 717-ISOMER-A, N3-(3-chloro-4-fluoro-phenyl)-N5-[(4-methoxyphenyl)methyl]-2-methyl-1,1-dioxo-1,2,6-thiadiazinane-3,5-dicarboxamide]",–,< 50
"COc1ccc(CNC(=O)C2CC(C(=O)Nc3ccc(F)c(Cl)c3)N(C)S(=O)(=O)N2)cc1 (single isomer, unassigned) [Compound 717-ISOMER-B, N3-(3-chloro-4-fluoro-phenyl)-N5-[(4-methoxyphenyl)methyl]-2-methyl-1,1-dioxo-1,2,6-thiadiazinane-3,5-dicarboxamide]",50 to 100,–
"CN1C(C(=O)Nc2ccc(F)c(Cl)c2)CC(C(=O)NCc2ccccc2)NS1(=O)=O (single isomer, unassigned) [Compound 718-ISOMER-A, N5-benzyl-N3-(3-chloro-4-fluoro-phenyl)-2-methyl-1,1-dioxo-1,2,6-thiadiazinane-3,5-dicarboxamide]",–,< 50
"CN1C(C(=O)Nc2ccc(F)c(Cl)c2)CC(C(=O)NCc2ccccc2)NS1(=O)=O (single isomer, unassigned) [Compound 718-ISOMER-B, N5-benzyl-N3-(3-chloro-4-fluorophenyl)-2-methyl-1,1-dioxo-1,2,6-thiadiazinane-3,5-dicarboxamide]",100 to 10000,–
"C[C@@H](NC(=O)C1CC(C(=O)Nc2ccc(F)c(Cl)c2)N(C)S(=O)(=O)N1)c1ccccc1 (single isomer, unassigned) [Compound 719-ISOMER-A]",–,< 50
"C[C@@H](NC(=O)C1CC(C(=O)Nc2ccc(F)c(Cl)c2)N(C)S(=O)(=O)N1)c1ccccc1 (single isomer, unassigned) [Compound 719-ISOMER-B]",100 to 10000,–
"COc1cccc(CNC(=O)C2CC(C(=O)Nc3ccc(F)c(Cl)c3)N(C)S(=O)(=O)N2)c1 (single isomer, unassigned) [Compound 721-ISOMER-A, N3-(3-chloro-4-fluoro-phenyl)-N5-[(3-methoxyphenyl)methyl]-2-methyl-1,1-dioxo-1,2,6-thiadiazinane-3,5-dicarboxamide]",–,< 50
"COc1cccc(CNC(=O)C2CC(C(=O)Nc3ccc(F)c(Cl)c3)N(C)S(=O)(=O)N2)c1 (single isomer, unassigned) [Compound 721-ISOMER-B, N3-(3-chloro-4-fluoro-phenyl)-N5-[(3-methoxyphenyl)methyl]-2-methyl-1,1-dioxo-1,2,6-thiadiazinane-3,5-dicarboxamide]",100 to 10000,–
"CN1C(C(=O)Nc2ccc(F)c(Cl)c2)CC(C(=O)NCc2ccc(Cl)cc2)NS1(=O)=O (single isomer, unassigned) [Compound 729-ISOMER-A, N3-(3-chloro-4-fluoro-phenyl)-N5-[(4-chlorophenyl)methyl]-2-methyl-1,1-dioxo-1,2,6-thiadiazinane-3,5-dicarboxamide]",–,< 50
"CN1C(C(=O)Nc2ccc(F)c(Cl)c2)CC(C(=O)NCc2ccc(Cl)cc2)NS1(=O)=O (single isomer, unassigned) [Compound 729-ISOMER-B, N3-(3-chloro-4-fluoro-phenyl)-N5-[(4-chlorophenyl)methyl]-2-methyl-1,1-dioxo-1,2,6-thiadiazinane-3,5-dicarboxamide]",100 to 10000,–
"CN1C(C(=O)Nc2ccc(F)c(Cl)c2)CC(C(=O)NCc2cccc(Cl)c2)NS1(=O)=O (single isomer, unassigned) [Compound 730-ISOMER-A, N3-(3-chloro-4-fluoro-phenyl)-N5-[(3-chlorophenyl)methyl]-2-methyl-1,1-dioxo-1,2,6-thiadiazinane-3,5-dicarboxamide]",–,< 50
"CN1C(C(=O)Nc2ccc(F)c(Cl)c2)CC(C(=O)NCc2cccc(Cl)c2)NS1(=O)=O (single isomer, unassigned) [Compound 730-ISOMER-B, N3-(3-chloro-4-fluorophenyl)-N5-[(3-chlorophenyl)methyl]-2-methyl-1,1-dioxo-1,2,6-thiadiazinane-3,5-dicarboxamide]",100 to 10000,–
"Cc1c(CNC(=O)C2CC(C(=O)Nc3ccc(F)c(Cl)c3)N(C)S(=O)(=O)N2)cnn1C (single isomer, unassigned) [Compound 740-ISOMER-A, N3-(3-chloro-4-fluoro-phenyl)-N5-[(1,5-dimethylpyrazol-4-yl)methyl]-2-methyl-1,1-dioxo-1,2,6-thiadiazinane-3,5-dicarboxamide]",–,< 50
"Cc1c(CNC(=O)C2CC(C(=O)Nc3ccc(F)c(Cl)c3)N(C)S(=O)(=O)N2)cnn1C (single isomer, unassigned) [Compound 740-ISOMER-B, N3-(3-chloro-4-fluoro-phenyl)-N5-[(1,5-dimethylpyrazol-4-yl)methyl]-2-methyl-1,1-dioxo-1,2,6-thiadiazinane-3,5-dicarboxamide]",100 to 10000,–
"CCc1nc(CNC(=O)C2CC(C(=O)Nc3ccc(F)c(Cl)c3)N(C)S(=O)(=O)N2)cs1 (single isomer, unassigned) [Compound 742-ISOMER-A, N3-(3-chloro-4-fluoro-phenyl)-N5-[(2-ethylthiazol-4-yl)methyl]-2-methyl-1,1-dioxo-1,2,6-thiadiazinane-3,5-dicarboxamide]",–,100 to 10000
"CCc1nc(CNC(=O)C2CC(C(=O)Nc3ccc(F)c(Cl)c3)N(C)S(=O)(=O)N2)cs1 (single isomer, unassigned) [Compound 742-ISOMER-B, N3-(3-chloro-4-fluoro-phenyl)-N5-[(2-ethylthiazol-4-yl)methyl]-2-methyl-1,1-dioxo-1,2,6-thiadiazinane-3,5-dicarboxamide]",< 50,–
"CC(C)OC(=O)N1CCC(NC(=O)C2CC(C(=O)Nc3ccc(F)c(Cl)c3)N(C)S(=O)(=O)N2)CC1 (single isomer, unassigned) [Compound 766-ISOMER-A, isopropyl 4-[[5-[(3-chloro-4-fluoro-phenyl)carbamoyl]-6-methyl-1,1-dioxo-1,2,6-thiadiazinane-3-carbonyl]amino]piperidine-1-carboxylate]",–,< 50
"CC(C)OC(=O)N1CCC(NC(=O)C2CC(C(=O)Nc3ccc(F)c(Cl)c3)N(C)S(=O)(=O)N2)CC1 (single isomer, unassigned) [Compound 766-ISOMER-B, isopropyl 4-[[5-[(3-chloro-4-fluoro-phenyl)carbamoyl]-6-methyl-1,1-dioxo-1,2,6-thiadiazinane-3-carbonyl]amino]piperidine-1-carboxylate]",50 to 100,–
"CN1C(C(=O)Nc2ccc(F)c(Cl)c2)CC(C(=O)NC2CCN(C(=O)OC(C)(C)C)CC2)NS1(=O)=O (single isomer, unassigned) [Compound 767-ISOMER-A, tert-butyl 4-[[5-[(3-chloro-4-fluoro-phenyl)carbamoyl]-6-methyl-1,1-dioxo-1,2,6-thiadiazinane-3-carbonyl]amino]piperidine-1-carboxylate]",–,< 50
